Measurements: the NIST ThermoML archive (doi:10.1021/acs.jced.8b00521)

Assay: xn = mol fraction of the nth substance listed
Details: 303.15 K, Liquid; for viscosity: Capillary tube (Ostwald / Ubbelohde) method; for mass density: Vibrating tube method

CCCCCCCC(=O)OCC [ethyl octanoate] + CCCCCCCCCCCC(=O)OC
Details | mass density [kg/m3] | viscosity [mPa·s]
100 kPa, x2 = 0.1 | 859 | 1.41
100 kPa, x2 = 0.1999 | 859 | 1.52
100 kPa, x2 = 0.3001 | 859 | 1.61
100 kPa, x2 = 0.4 | 860 | 1.71
100 kPa, x2 = 0.4999 | 860 | 1.82
100 kPa, x2 = 0.6001 | 860 | 1.96
100 kPa, x2 = 0.6999 | 861 | 2.08
100 kPa, x2 = 0.8001 | 861 | 2.19
100 kPa, x2 = 0.9 | 862 | 2.32
2940 kPa, x2 = 0.4999 | 862 | 1.9
2960 kPa, x2 = 0.1 | 860 | 1.46
2960 kPa, x2 = 0.3001 | 861 | 1.66
2980 kPa, x2 = 0.1999 | 860 | 1.56
2980 kPa, x2 = 0.4 | 861 | 1.75
2990 kPa, x2 = 0.6001 | 862 | 2.05
2990 kPa, x2 = 0.9 | 863 | 2.4
3000 kPa, x2 = 0.8001 | 863 | 2.28
3080 kPa, x2 = 0.6999 | 862 | 2.15
5980 kPa, x2 = 0.8001 | 865 | 2.37
6000 kPa, x2 = 0.4999 | 863 | 1.96
6010 kPa, x2 = 0.1 | 861 | 1.51
6020 kPa, x2 = 0.6001 | 864 | 2.12
6030 kPa, x2 = 0.1999 | 862 | 1.6
6040 kPa, x2 = 0.6999 | 864 | 2.24
6060 kPa, x2 = 0.9 | 865 | 2.48
6080 kPa, x2 = 0.3001 | 863 | 1.71
6100 kPa, x2 = 0.4 | 863 | 1.82
8950 kPa, x2 = 0.8001 | 867 | 2.44
8980 kPa, x2 = 0.1999 | 863 | 1.66
8980 kPa, x2 = 0.3001 | 864 | 1.78
8990 kPa, x2 = 0.4 | 865 | 1.88
8990 kPa, x2 = 0.9 | 868 | 2.56
9030 kPa, x2 = 0.1 | 863 | 1.55
9040 kPa, x2 = 0.6999 | 866 | 2.31
9050 kPa, x2 = 0.6001 | 866 | 2.19
9090 kPa, x2 = 0.4999 | 865 | 2.02
11960 kPa, x2 = 0.6999 | 868 | 2.38
11960 kPa, x2 = 0.8001 | 869 | 2.5
11980 kPa, x2 = 0.1 | 864 | 1.59
12000 kPa, x2 = 0.3001 | 866 | 1.83
12010 kPa, x2 = 0.6001 | – | 2.24
